Entries after “also recorded” stand apart in the source; their conditions may differ.
Assays:
H3K9me3(1–16) peptides [1] = assay: peptide pulldown assay; format: binding; settings: 300 mM NaCl HBS-EP; Coomassie gel; n = 3 (p values 0.021, 0.008; ns 0.181)
Procedure: H3K9me3 or unmethylated H3(1–16) peptides, linked to Dynabeads MyOne streptavidin T1 (Thermo Fisher Scientific), were used in pulldown assays with eluted GST-HP1 in HBS-EP (300 mM NaCl, 10 mM HEPES KOH pH 7.4, 5 mM EDTA and 0.2% NP-40). Pulldown assays were performed in 300 mM NaCl HBS-EP as previously described. Samples were resuspended in 2 × Laemmli buffer and resolved by SDS-PAGE followed by Coomassie-blue staining. Images were quantified using ImageJ software.

H3K9me3(1–16) peptides [2] = assay: bio-layer interferometry (BLI); format: binding; settings: 20 mM Hepes KOH pH 7.2, 70 mM KCl; GST fusion; association 120 s, dissociation 120 s; WT 28.0 μM, R38/9K 25.5 μM, R38/9A 28.3 μM and lower concentrations
Procedure: Recombinant mouse full-length HP1 wildtype and mutant proteins were expressed in (as GST fusion proteins), and purified from, Escherichia coli as described. Proteins were concentrated using Amicon Ultra centrifugation filters with a 30 kDa cutoff (Millipore), washed into binding buffer (20 mM Hepes KOH pH 7.2, 70 mM KCl, 1 mM DTT, 0.1% Tween-20, 5% glycerol). Protein concentrations were determined by Bradford protein assay against a BSA standard, and purity was verified by SDS-PAGE followed by Coomassie-blue staining. Real-time binding assays of GST-HP1γ were performed using the BLItz® system (ForteBio) in binding buffer (+ 0.1% BSA). Biotinylated H3(1–16) peptides (NH2-[…](me3)STGGKAP-Biotin) were immobilised to Dip and Read High Precision Streptavidin (SAX) Biosensors (ForteBio), and kinetics for a range of protein concentrations were measured under advanced kinetics settings (1. initial baseline measuring buffer only: 30 s, 2. loading of peptides onto sensors: 120 s, 3. effective baseline measurement: 30 s, 4. association of GST-HP1γ proteins: 120 s, 5. dissociation of GST-HP1γ proteins: 120 s). The data were normalised to the effective baseline signal by subtracting the average baseline value (150–180 s) from each data point (150–420 s). […] Raw data are summarised in Additional file 3: Table S1.

Substance | binding in pulldown, in words (H3K9me3(1–16) peptides [1]) | BLI binding, in words (H3K9me3(1–16) peptides [2])
HP1γR38/9A: HP1γ with alanine substitutions at amino acids 38 and 39 to mimic citrullination | significantly reduced | begin to plateau at significantly lower amounts compared to the WT protein; also recorded: distinctly different kinetic behaviour compared to the WT protein
HP1γWT: full-length mouse HP1γ wild type, as GST or mEos3.2–HaloTag fusion protein | – | binds exclusively to H3K9me3 peptides

Source: PMC6444592, “Citrullination of HP1γ chromodomain affects association with chromatin” (Epigenetics & Chromatin, 2019)
